Where two headings read alike, the source gives them in different places. Where only a bound is given, the exact number is not on record here.

The conditions of series [1]: 20° C., cited from earlier work.
Series [2] is described as follows: compatibility of diquats with anionic surfactant in water. Further details: key: Cl. = Clear; Blu. = Bluish; Visc. = Viscous; Prec. = Precipitate; Turb. = Turbid. The conditions noted are these: 1 wt % total surfactant in water, ambient temperature; for Compatibility observation, 100% of Diquat: 100% diquat; for Compatibility observation, 10% of Diquat / Compatibility observation, 20% of Diquat / Compatibility observation, 30% of Diquat / Compatibility observation, 40% of Diquat / Compatibility observation, 50% of Diquat / Compatibility observation, 60% of Diquat / Compatibility observation, 70% of Diquat / Compatibility observation, 80% of Diquat / Compatibility observation, 90% of Diquat: mixture with Sodium Laureth Sulfate; for Compatibility observation, 10% of Diquat: 10% diquat; for Compatibility observation, 20% of Diquat: 20% diquat; for Compatibility observation, 30% of Diquat: 30% diquat; for Compatibility observation, 40% of Diquat: 40% diquat; for Compatibility observation, 50% of Diquat: 50% diquat; for Compatibility observation, 60% of Diquat: 60% diquat; for Compatibility observation, 70% of Diquat: 70% diquat; for Compatibility observation, 80% of Diquat: 80% diquat; for Compatibility observation, 90% of Diquat: 90% diquat. Type of series: physicochemical. On the procedure: To delimit the applicability of the Diquats the compatibility in different ratios with LES was tested in the temperature range between 0° C. and 90° C. […] With a hydrocarbon tail of up to 10 carbon atoms no precipitation was observed and with increasing chain length only a very narrow region of mixing ratios led to an insoluble deposit.

Series [3] in a line: solubility temperatures of 1 wt % solutions. It is filed as physicochemical.
The test system of another series is winter wheat (cv. Ilias). The experiment in a line: adjuvant for glyphosate test on wheat. Type of series: in vivo. The conditions noted are these: where named, 0.25% w/v, 21 DAT; for Fresh Weight WHEAT: IPA-glyphosate 2.3 mM (77.8 g ae/ha at 200 L/ha); for Relative weight WHEAT (%): untreated plant = 100%, IPA-glyphosate 2.3 mM. As for the experimental part:
(§1) Wheat plants were used as a model for difficult to wet grasses and black nightshade was used as a model for a plant with an easy to wet but difficult to permeate leaf surface.
(§2) After emergence, the wheat seedlings were thinned to six plants per pot for the efficacy experiments. Black nightshade seedlings were thinned to one plant per pot. Black nightshade and wheat were treated at the four- and the three-leaf stage, respectively. The fresh weights of the plants were measured 14 days after treatment (14 DAT; black nightshade) or 21 days after treatment (21 DAT; wheat).
(§3) Demineralized water was used as the carrier. […] Based on previous work, these rates were 20.3 g ae/ha (equivalent to 0.6 mM) on black nightshade and 77.8 g ae/ha (equivalent to 2.3 mM at 200 L/ha) on wheat (ae=acid equivalent).
(§4) The fresh weight of the untreated plant was taken as a reference (100%). […] An industrial standard was also included in the test series.

In the next series the test system is Black nightshade (SOLNI). The experiment in a line: adjuvant for glyphosate test on black nightshade. It is filed as in vivo. As to conditions: where named, 0.25% w/v, 14 DAT; for Fresh Weight SOLNI: IPA-glyphosate 0.6 mM (20.3 g ae/ha at 200 L/ha); for Relative weight SOLNI (%): untreated plant = 100%, IPA-glyphosate 0.6 mM. As for the experimental part:
as §1, §2, §3, §4

In the case of `CCNc1nc(Cl)nc(NC(C)C)n1` [Atrazine], the “log Kow” value in series [1] (no pH given) is 2.6.

On to `CC(C)N1C(=O)c2ccccc2NS1(=O)=O` [Bentazone], for which, in series [1] (at pH 7), the “log Kow” value was −0.5.

With `CCCCCCCC(=O)N(CCC[N+](C)(C)Cc1ccccc1)CCC[N+](C)(C)Cc1ccccc1.[Br-].[Br-]` [C8BnBr], in series [2], the “Compatibility observation, 100% of Diquat” value was “Cl”; the “Compatibility observation, 10% of Diquat” value is “Cl”; the “Compatibility observation, 20% of Diquat” value is given as “Cl”; the “Compatibility observation, 30% of Diquat” value is given as “Cl”. For the same molecule, in series [2], the “Compatibility observation, 40% of Diquat” value was “Prec”; the “Compatibility observation, 50% of Diquat” value is reported as “Prec”; the “Compatibility observation, 60% of Diquat” value is “Prec”; the “Compatibility observation, 70% of Diquat” value was “Prec”. For the same molecule, in series [2], the “Compatibility observation, 80% of Diquat” value is reported as “Prec” and the “Compatibility observation, 90% of Diquat” value is on record as “Prec”.

Regarding `CCCCCCCC(=O)N(CCC[N+](C)(C)C)CCC[N+](C)(C)C.[Cl-].[Cl-]` [C8MeCl], in series [2], the “Compatibility observation, 100% of Diquat” value is “Cl”; the “Compatibility observation, 10% of Diquat” value is “Cl”; the “Compatibility observation, 20% of Diquat” value is recorded as “Cl”; the “Compatibility observation, 30% of Diquat” value was “Cl”. Also, in series [2], the “Compatibility observation, 40% of Diquat” value is “Cl”; the “Compatibility observation, 50% of Diquat” value is “Cl”; the “Compatibility observation, 60% of Diquat” value is “Cl”; the “Compatibility observation, 70% of Diquat” value is reported as “Cl”. In series [2], the “Compatibility observation, 80% of Diquat” value is listed as “Cl” and the “Compatibility observation, 90% of Diquat” value is listed as “Cl”.

For `CCCCCCCC[N+](C)(C)CCCN(CCC[N+](C)(C)CCCCCCCC)C(=O)CCCCCCC.[Br-].[Br-]` [C8OcBr], in series [2], the “Compatibility observation, 100% of Diquat” value is on record as “Cl”; the “Compatibility observation, 10% of Diquat” value is “Cl”; the “Compatibility observation, 20% of Diquat” value is recorded as “Cl”; the “Compatibility observation, 30% of Diquat” value is reported as “Blu”. Moreover, in series [2], the “Compatibility observation, 40% of Diquat” value is reported as “Blu”; the “Compatibility observation, 50% of Diquat” value is on record as “Turb”; the “Compatibility observation, 60% of Diquat” value is recorded as “Turb”; the “Compatibility observation, 70% of Diquat” value is “Turb”. Also, in series [2], the “Compatibility observation, 80% of Diquat” value is recorded as “Cl” and the “Compatibility observation, 90% of Diquat” value is “Cl”.

In the case of `CCCCCCCCCC(=O)N(CCC[N+](C)(C)C)CCC[N+](C)(C)C.[Cl-].[Cl-]` [C10MeCl], in series [2], the “Compatibility observation, 100% of Diquat” value is listed as “Cl”; the “Compatibility observation, 10% of Diquat” value was “Cl”; the “Compatibility observation, 20% of Diquat” value is listed as “Cl”; the “Compatibility observation, 30% of Diquat” value was “Cl”. In series [2], the “Compatibility observation, 40% of Diquat” value is recorded as “Cl”; the “Compatibility observation, 50% of Diquat” value was “Turb”; the “Compatibility observation, 60% of Diquat” value was “Cl”; the “Compatibility observation, 70% of Diquat” value is listed as “Cl”. Further, in series [2], the “Compatibility observation, 80% of Diquat” value is reported as “Cl” and the “Compatibility observation, 90% of Diquat” value is reported as “Cl”.

As to `CCCCCCCCCCCC(=O)N(CCC[N+](C)(C)C)CCC[N+](C)(C)C.[Cl-].[Cl-]` [C12MeCl], in series [2], the “Compatibility observation, 100% of Diquat” value is “Cl”; the “Compatibility observation, 10% of Diquat” value is “Cl”; the “Compatibility observation, 20% of Diquat” value is “Cl”; the “Compatibility observation, 30% of Diquat” value is on record as “Cl”. For the same molecule, in series [2], the “Compatibility observation, 40% of Diquat” value was “Blu”; the “Compatibility observation, 50% of Diquat” value is recorded as “Cl”; the “Compatibility observation, 60% of Diquat” value is “Cl”; the “Compatibility observation, 70% of Diquat” value was “Cl”. Moreover, in series [2], the “Compatibility observation, 80% of Diquat” value was “Cl” and the “Compatibility observation, 90% of Diquat” value is reported as “Cl”.

For `CCCCCCCCCCCCCC(=O)N(CCC[N+](C)(C)C)CCC[N+](C)(C)C.[Cl-].[Cl-]` [C14MeCl], in series [2], the “Compatibility observation, 100% of Diquat” value is “Cl”; the “Compatibility observation, 10% of Diquat” value is reported as “Cl”; the “Compatibility observation, 20% of Diquat” value is recorded as “Cl”; the “Compatibility observation, 30% of Diquat” value is reported as “Cl”. Besides, in series [2], the “Compatibility observation, 40% of Diquat” value is “Prec”; the “Compatibility observation, 50% of Diquat” value was “Cl”; the “Compatibility observation, 60% of Diquat” value is recorded as “Cl”; the “Compatibility observation, 70% of Diquat” value was “Cl”. Moreover, in series [2], the “Compatibility observation, 80% of Diquat” value is listed as “Cl” and the “Compatibility observation, 90% of Diquat” value is recorded as “Cl”.

As to `CCCCCCCCCCCCCCCC(=O)N(CCC[N+](C)(C)C)CCC[N+](C)(C)C.[Cl-].[Cl-]` [C16MeCl], in series [2], the “Compatibility observation, 100% of Diquat” value was “Cl”; the “Compatibility observation, 10% of Diquat” value was “Cl”; the “Compatibility observation, 20% of Diquat” value was “Cl”; the “Compatibility observation, 30% of Diquat” value is listed as “Visc”. For the same molecule, in series [2], the “Compatibility observation, 40% of Diquat” value was “Prec”; the “Compatibility observation, 50% of Diquat” value was “Cl”; the “Compatibility observation, 60% of Diquat” value is “Cl”; the “Compatibility observation, 70% of Diquat” value was “Cl”. In series [2], the “Compatibility observation, 80% of Diquat” value is recorded as “Cl” and the “Compatibility observation, 90% of Diquat” value is listed as “Cl”.

For the molecule `CCCCCCCCCCCCCCCCCC(=O)N(CCC[N+](C)(C)C)CCC[N+](C)(C)C.[Cl-].[Cl-]` [C18MeCl], in series [2], the “Compatibility observation, 100% of Diquat” value is “Cl”; the “Compatibility observation, 10% of Diquat” value is recorded as “Cl”; the “Compatibility observation, 20% of Diquat” value is reported as “Cl”; the “Compatibility observation, 30% of Diquat” value is reported as “Cl”. Also, in series [2], the “Compatibility observation, 40% of Diquat” value is recorded as “Turb”; the “Compatibility observation, 50% of Diquat” value is “Visc”; the “Compatibility observation, 60% of Diquat” value is reported as “Cl”; the “Compatibility observation, 70% of Diquat” value was “Cl”. In series [2], the “Compatibility observation, 80% of Diquat” value is listed as “Cl” and the “Compatibility observation, 90% of Diquat” value is listed as “Cl”.

Consider `CCCCCCCCCCCCCCCC[N+](C)(C)C.[Br-]` [CTAB, Cetrimonium bromide], for which the “Solubility temperatures [° C.] 1 wt %” value in series [3] is 25 °C.

Turning to `CCCCCCCCCCCC[N+](C)(C)C.[Br-]` [DTAB, Dodecyl Trimethyl Ammonium Bromide], the “Solubility temperatures [° C.] 1 wt %” value in series [3] was less than 0 °C.

As to `CC(C)N.O=C(O)CNCP(=O)(O)O` [IPA-glyphosate, reference compound], in the series on winter wheat (cv. Ilias), the “Fresh Weight WHEAT” value is on record as 12.6 g and the “Relative weight WHEAT (%)” value is recorded as 71.7%. For the same molecule, in the series on Black nightshade (SOLNI), the “Fresh Weight SOLNI” value turned out to be 6.4 g and the “Relative weight SOLNI (%)” value is 55.2%.

For the molecule `CCCCCCCCCCCC(=O)[O-].[Na+]` [NaC12, Sodium Laurate], in series [3], the “Solubility temperatures [° C.] 1 wt %” value stood at 25 °C.

Regarding `COc1cc(OC)nc(NC(=O)NS(=O)(=O)c2ncccc2C(=O)N(C)C)n1` [Nicosulfuron], in series [1] (at pH 7), the “log Kow” value is 0.

For the molecule `CCCCCCCCCCCC(=O)N(CCC[N+](C)(C)C)CCC[N+](C)(C)C.[Cl-].[Cl-]` [R2, R3, R4, R5, R6 = —CH3 R1 = —C11H23], in the series with winter wheat (cv. Ilias), the “Fresh Weight WHEAT” value is on record as 14.8 g and the “Relative weight WHEAT (%)” value is listed as 83.8%. For the same molecule, in the series on Black nightshade (SOLNI), the “Fresh Weight SOLNI” value is given as 5.8 g and the “Relative weight SOLNI (%)” value is listed as 50.0%.

Take `CCCCCCCCCCCCCCCCCC(=O)N(CCC[N+](C)(C)C)CCC[N+](C)(C)C.[Cl-].[Cl-]` [R2, R3, R4, R5, R6 = —CH3 R1 = —C17H35]: in the series on winter wheat (cv. Ilias), the “Fresh Weight WHEAT” value is recorded as 14.7 g and the “Relative weight WHEAT (%)” value stood at 83.5%. Moreover, in the series on Black nightshade (SOLNI), the “Fresh Weight SOLNI” value is 2.8 g and the “Relative weight SOLNI (%)” value amounted to 24.0%.

The values are drawn from patent US9992994B2, “Agricultural and detergent compositions containing a tertiary amide as adjuvant or as surfactant” (Taminco BVBA, priority 2011, dated 2018).
